Reference: US5162315A, “Penetration enhancers” (priority 1989, dated 1992)

Assays:
[1] = type: in vitro ADME, human
Protocol: The compounds of the present invention were tested in vitro as penetration enhancers according to the procedure outlined below.
(§1) Human stratum corneum was isolated from full thickness human skin as described by Bronaugh et al., J. Pharm. Sci. 75, 1094 (1986). The skin was placed between the donor and the receptor compartments of diffusion cells in such a way that the dermal side of the skin faced the receptor compartment which was filled with normal saline (pH 7.2-7.4). The stratum corneum was equilibrated at 37° C. overnight prior to the application of a topical formulation or transdermal patch. All formulations were studied in triplicate.
(§2) About 500 mg of the following three Isosorbide Dinitrate (ISDN) formulations (40% ISDN & 60% Lactose) were applied to cover the stratum corneum surface within the donor compartment. The entire contents of the receptor compartment were removed at specific time intervals over 48 hours and replenished with fresh saline. The aliquots were analyzed by HPLC and the average cumulative amount of ISDN in micrograms permeating over the study period was calculated.
Procedure of Example 8 was repeated with the following

[2] = type: in vitro ADME, human; remark: listed apart in the source
Protocol: The compounds of the present invention were tested in vitro as penetration enhancers according to the procedure outlined below. The penetration enhancers were formulated with pharmacologically active agents in creams and permeation of the active agent through human stratum corneum in vitro was compared to control formulation without enhancer. Higher permeation of the active agent in presence of an enhancer exemplified the invention.
as §1, §2
Procedure of Example 8 was repeated with the following Haloperiodol Decanoate (HD) cream formulations. Saline in the receptor compartment was substituted with saline/isopropyl alcohol (1:1).

SMILES	Average Cumulative Amount of HC in Micrograms permeating over 48 hours [1]	HC permeation compared to control cream [1]	HC permeation enhancement compared to cyclic isomer [1]	Average Cumulative Amount of HD in Micrograms permeating over 51 hours [2]	HD permeation compared to control [2]
CCCCCCCCCCCC1=NCCN1CCO [1-(2-hydroxyethyl)-2-undecyl-2-imidazoline, reference compound]	67.53 ± 3.34 Micrograms	–	–	–	–
CCCCCCCCCCCC(=O)NCCNCCO [Example 1, N-[2-(2-hydroxyethyl)aminoethyl]dodecanamide]	55.19 ± 5.16 Micrograms	superior permeation as compared to control cream	as effective as its cyclic isomer	–	–
CCCCCCCCCCCC(=O)N1CCN(CCO)CC1 [Example 5, 1-(1-oxododecyl)-4-(2-hydroxyethyl)piperazine]	–	–	–	936.66 ± 16.98 Micrograms	higher HD permeation as compared to control
CCCCCCCCCC(=O)OC1(c2ccc(Cl)cc2)CCN(CCCC(=O)c2ccc(F)cc2)CC1 [HD, Haloperiodol Decanoate, reference compound]	–	–	–	617.68 ± 17.68 Micrograms	–
